Test results taken from patent US20040138285A1, “Chondrogenesis promoters” (priority 2001, published 2004).

How the values were obtained:
[1] = test system: rat articular chondrocytes; experiment: Cartilage matrix production promoting effect of compound A and PD98059 (alcian blue staining), Example 2; assay type: cell-based; settings: one week; for ratio of alcian blue positive cells (photomicrograph after alcian blue staining): compound A 2×10^−6 mol/L or PD98059 5×10^−5 mol/L alone, vs vehicle control (FIG. 7); for production of the cartilage matrix (alcian blue staining intensity, absorption at 595 nm): each agent alone (compound A 2×10^−6 mol/L; PD98059 5×10^−5 mol/L), vs vehicle control, p<0.05 (FIG. 8)
Method: A 5-week-old male SD rat (Charles River Japan Corp.) was euthanized, and thereafter the femur was removed therefrom, and the articular cartilage layer was stripped off from the knee joint surface of the femur with a scalpel. The articular cartilage obtained was treated with 0.15% trypsin (DIFCO Lab.)/0.05% EDTA (Nacalai Tesque, Inc.) at 37° C. for one hour, and thereafter the matrix was decomposed while being agitated at 37° C. in 0.15% collagenase (WORTHINGTON Corp.) for three hours, thereby obtaining a cell suspension. The cartilage cells obtained were seeded at the cell density of 20000 per well in a 24-well culturing plate (Falcon Corp.) coated with type I collagen (Nitta Gelatin Inc.) and were cultured in a Dulbecco's modified Eagle medium (Gibco) containing 10% fetal bovine serum (REHATUIN) and antibiotic-antimycotic (Gibco) (Calcif. Tissue Int. 19: 179-187, 1975). After achievement of the confluent state of cells, 50 μg/mL ascorbic acid (Wako Pure Chemical Industries) was added to the medium, and either or both of 2×10^−6 mol/L compound A and 2×10^−6 to 5×10^−5 mol/L compound with MEK1 inhibitory activity PD98059 (New England Biolab) were further added thereto, followed by culture for one week. 0.12% DMSO (JUNSEI CHEMICAL CO., LTD) was used as a solvent vehicle control. The medium was replaced every two to three days and the above agents were added every replacement.
After completion of the culture, the cell layer was fixed at room temperature in 4% paraformaldehyde solution (Wako Pure Chemical Industries) for two hours and then washed with distilled water and 5% acetic acid of pH 1.0, and thereafter the cartilage matrix was stained at room temperature with alcian blue of pH 1.0 (Wako Pure Chemical Industries) for two hours. The cell layer was washed with 5% acetic acid and distilled water and then dried, 6 mol/L guanidine hydrochloride (Nacalai Tesque, Inc.) was added to the cell layer to extract the dye therefrom, and absorption was measured at 595 nm with the Microplate reader (BioRad).

[2] = test system: rat articular chondrocytes; experiment: Cartilage matrix production promoting effect of compound A and U0126 (alcian blue staining, phase contrast morphology), Example 1; assay type: cell-based
Method: A 5-week-old male SD rat (Charles River Japan Corp.) was euthanized, and thereafter the femur was removed therefrom, and the articular cartilage layer was stripped off from the knee joint surface of the femur with a scalpel. The articular cartilage obtained was treated with 0.15% trypsin (DIFCO Lab.)/0.05% EDTA (KANTO KAGAKU CORP.) at 37° C. for one hour, and thereafter the matrix was decomposed while being agitated at 37° C. in 0.15% collagenase (WORTHINGTON Corp.) for three hours, thereby obtaining a cell suspension. […] 0.12% DMSO (Wako Pure Chemical Industries) was used as a solvent vehicle control. The medium was replaced every two to three days and the above agents were added every replacement.
After completion of the culture, the cell layer was fixed at room temperature in 4% paraformaldehyde solution (Wako Pure Chemical Industries) for two hours and then washed with distilled water and 5% acetic acid of pH 1.0, and thereafter the cartilage matrix was stained at room temperature with alcian blue of pH 1.0 (Wako Pure Chemical Industries) for two hours. The cell layer was washed with 5% acetic acid and distilled water and then dried, 6 mol/L guanidine hydrochloride (Nacalai Tesque, Inc.) was added to the cell layer to extract the dye therefrom, and the absorption was measured at 630 nm with a Microplate reader (BioRad).

Row | Structure (SMILES) | ratio of alcian blue positive cells (photomicrograph after alcian blue staining) [1] | production of the cartilage matrix (alcian blue staining intensity, absorption at 595 nm) [1] | production of the matrix and morphology of chondrocytes (phase contrast photomicrograph) ([2]; compound A 2×10^−6 mol/L alone, cultured one week, vs vehicle control 0.12% DMSO (FIG. 2)) | production of the cartilage matrix (alcian blue staining intensity, absorption at 630 nm) ([2]; each agent alone (compound A 5×10^−7 to 2×10^−6 mol/L; U0126 1×10^−7 to 1×10^−5 mol/L), one week, vs vehicle control, p<0.05 (FIGS. 5 and 6))
1 | COc1cccc(-c2cc(=O)c3ccccc3o2)c1N [PD98059, reference compound] | the ratio of alcian blue positive cells increased | significantly promoted the production of the cartilage matrix |  | 
2 | CCOC(CN1C(=O)[C@](CC(=O)Nc2ccc(C)cc2)(NC(=O)Nc2ccc(C)cc2)c2ccccc21)OCC [compound A] | the ratio of alcian blue positive cells increased | significantly promoted the production of the cartilage matrix | production of the matrix was enhanced | significantly promoted the production of the cartilage matrix
